Measured values reported in patent US8318657B2, “Methods and compositions for preventing and/or treating pancreatitis” (Flinders Technologies Pty Ltd., priority 2005, dated 2012).
“Also recorded” adds a separate entry of the source.

Key:
[1] = system: possum model of acute pancreatitis (AP); test: Possum model of acute pancreatitis (pancreatic duct ligation + CCK/secretin) with galanin or galantide; format: in vivo, Australian Brush-tailed possums (Trichosurus vulpecula); settings: for plasma amylase activity / plasma lipase activity / pancreatic vascular perfusion (PVP) / pancreatic oedema: possum AP; for pancreatic oedema: pancreas harvested 8 hours post-AP induction, H&E, point counting, treatment from 15 minutes prior to AP induction, decrease of AP-induced oedema
[2] = system: basal pancreatic exocrine secretion; test: Basal pancreatic exocrine secretion in anaesthetised possums; format: in vivo, Australian Brush-tailed possums (Trichosurus vulpecula); settings: galanin 0.5 or galantide 1.5 nmol/kg bolus then 2 nmol/kg/h i.v., preliminary study
Description: The possums were anaesthetized as described above. The left femoral vein was cannulated with two cannulae (1.05 mm OD, 0.35 ID) for administration of anaesthetic drugs and normal saline. […] A midline laparotomy was then performed. With minimal handling of tissues, the duodenum with the sphincter of Oddi was placed on a platform and stabilised with pins. The pancreatic duct component of the sphincter of Oddi was identified with the aid of a dissecting microscope and opened with micro-scissors. It was then cannulated (1.5 mm OD, 0.9 mm ID) advanced 4-5 mm and ligated with 5-0 prolene suture. This cannula was left open to collect pancreatic juice. After an initial stabilization period of 15 minutes, the pancreatic juice was collected every 30 minutes for 3.5 hours.
(§1) The quantity of pancreatic exocrine secretion was estimated gravimetrically (basal secretion and stimulated secretion).

[3] = system: hyperstimulated pancreatic exocrine secretion; test: Hyperstimulated (CCK/secretin) pancreatic exocrine secretion in anaesthetised possums; format: in vivo, Australian Brush-tailed possums (Trichosurus vulpecula); settings: CCK/secretin 5 ug/kg of each/hour i.v., galanin 0.5 or galantide 1.5 nmol/kg bolus then 2 nmol/kg/h, decrease of elevated volume, preliminary study
Description: The experimental setup was similar to as described above. In the control group after an initial stabilization period of 15 minutes, the pancreatic juice was collected at half hourly intervals for one hour. This established the basal secretion rate. Then a mixture of cholecystokinin and secretin (CCK-SEC) was infused i.v at 5 μg (of each peptide)/kg/hr for the entire duration of the experiment.
The galanin or galantide infusion was continued for one and a half hour and then stopped. The CCK-SEC infusion was further continued for one hour. During the entire course of experiment, pancreatic juice was collected at half hourly intervals.
as §1

[4] = system: caerulein-induced acute pancreatitis (AP) in mice; test: Caerulein-induced acute pancreatitis in mice (mild model, 7 hourly i.p. injections) with galanin or galanin antagonists; format: in vivo, mouse (female Balb C or Swiss); settings: for pancreatic acinar cell necrosis score: histology scoring system
[5] = system: mice without acute pancreatitis; test: Control groups: mice given galanin or galanin antagonist alone (saline, no caerulein); settings: mice without AP
[6] = GT 1.5 nmol/kg bolus then 2 nmol/kg/h i.v., delayed: initiated 2 hours post-AP induction
[7] = GT 1.5 nmol/kg bolus then 2 nmol/kg/h i.v., delayed: initiated 2 hours post-AP induction, listed as GT
[8] = i.v. bolus (GL 0.5, GT 1.5 nmol/kg) then 2 nmol/kg/h continuous infusion, initiated 15 minutes prior to AP induction, effect on AP-induced rise
[9] = i.v. bolus (GL 0.5, GT 1.5 nmol/kg) then 2 nmol/kg/h continuous infusion, initiated 15 minutes prior to AP induction, effect on AP-induced rise, listed as GT
[10] = mouse caerulein AP, 20 nmol/kg i.p. with each caerulein injection, reduction of AP-induced level
[11] = mouse caerulein AP, 40 nmol/kg i.p. with each caerulein injection, reduction of AP-induced level
[12] = mouse caerulein AP, GT 40 nmol/kg, treatment delayed for 2 hours post-AP induction

For `CSCC[C@H](NC(=O)[C@H](CC(C)C)NC(=O)CNC(=O)[C@H](Cc1ccccc1)NC(=O)[C@H](Cc1ccccc1)NC(=O)[C@H](CCC(N)=O)NC(=O)[C@H](CCC(N)=O)NC(=O)[C@@H]1CCCN1C(=O)CNC(=O)[C@H](CC(C)C)NC(=O)[C@H](CC(C)C)NC(=O)[C@H](Cc1ccc(O)cc1)NC(=O)CNC(=O)[C@H](C)NC(=O)[C@H](CO)NC(=O)[C@H](CC(N)=O)NC(=O)[C@H](CC(C)C)NC(=O)[C@@H](NC(=O)[C@H](Cc1c[nH]c2ccccc12)NC(=O)CN)[C@@H](C)O)C(N)=O` [Galantide, Galanin(1-13)-substance P(5-11) amide], the plasma amylase activity [1, 6] was “reduces plasma amylase and lipase secretion”, the plasma lipase activity [1, 6] was “reduces plasma amylase and lipase secretion” and the plasma amylase activity [1, 7] was “reduced the AP-induced rise in plasma amylase activity”. The plasma lipase activity [1, 7] was “suppressed the AP-induced rise in plasma lipase activity”, the “pancreatic vascular perfusion (PVP)” value ([1]; i.v. bolus (GL 0.5, GT 1.5 nmol/kg) then 2 nmol/kg/h continuous infusion, initiated 15 minutes prior to AP induction) was “increases PVP from the outset” and the plasma amylase activity [1, 8] was “completed prevented the pancreatitis-induced increase in plasma amylase”. The plasma lipase activity [1, 8] was “markedly depressed the pancreatitis-induced increase in plasma lipase”, the plasma amylase activity [1, 9] was “completely suppressed the AP-induced rise in plasma amylase activity” and the plasma lipase activity [1, 9] was “markedly suppressed the AP-induced rise in plasma lipase activity”. The “pancreatic vascular perfusion (PVP)” value ([1]; i.v. bolus (GL 0.5, GT 1.5 nmol/kg) then 2 nmol/kg/h continuous infusion, initiated 15 minutes prior to AP induction, listed as GT) was “sustained fall in PVP”, the pancreatic oedema [1] was “reduced” and the pancreatic oedema ([1]; listed as GT) was “significantly decreased”. For the same molecule, the “severity of pancreatitis (summary)” value ([1]; possums, administration prior to the onset and also after onset of acute pancreatitis) was “reduces the severity of pancreatitis”, the “basal rate of pancreatic exocrine secretion (volume)” value [2] was “does not influence basal exocrine secretion (volume)” and the “hyperstimulated pancreatic exocrine secretion (volume of pancreatic juice)” value [3] was “does reduce hyper-stimulated exocrine secretion”. The “hyperstimulated pancreatic exocrine secretion (volume of pancreatic juice)” value ([3]; listed as galantide) was “decreased”, the “pancreatic myeloperoxidase (MPO) activity” value (“pancreatic myeloperoxidase” below) ([4]; mouse caerulein AP, 10 nmol/kg i.p. with each caerulein injection, reduction of AP-induced level, listed as GT) was “also effective; also recorded: significantly reduced” and the “pancreatic tissue architecture / AP-induced pancreatic damage (histological sections)” value ([4]; mouse caerulein AP, 20 nmol/kg) was “reduced the acute pancreatitis-induced pancreatic damage”. For the same molecule, the “pancreatic myeloperoxidase” value [4, 10] was “significantly reduced”, the plasma amylase activity [4, 10] was “reduced the plasma amylase level” and the plasma lipase activity [4, 10] was “significantly reduced”. For the same molecule, the plasma amylase activity ([4]; mouse caerulein AP, 20 nmol/kg i.p. with each caerulein injection, reduction of AP-induced level, listed as GT) was “significantly reduced”, the “pancreatic acinar cell necrosis score” value ([4]; mouse caerulein AP, 20 nmol/kg) was “reduced the pancreatitis-induced necrosis” and the “pancreatic acinar cell necrosis score” value ([4]; mouse caerulein AP, 20 nmol/kg, listed as GT) was “significantly reduced the necrosis score”. For the same molecule, the “histology score (pancreatic tissue damage)” value ([4]; mouse caerulein AP, 20 nmol/kg, scoring system) was “significantly reduced the histology score”, the plasma amylase activity [4, 11] was “reduced the plasma amylase level” and the plasma lipase activity [4, 11] was “significantly reduced”. The plasma amylase activity ([4]; mouse caerulein AP, 40 nmol/kg i.p. with each caerulein injection, reduction of AP-induced level, listed as GT) was “significantly reduced”, the “pancreatic myeloperoxidase” value ([4]; mouse caerulein AP, 40 nmol/kg i.p. with each caerulein injection, vs AP alone) was “significantly reduced” and the plasma amylase activity [4, 12] was “significantly reduced”. The plasma lipase activity [4, 12] was “significantly reduced”, the pancreatitis-induced plasma hyperenzymemia ([4]; mouse caerulein AP, galantide administered 2 hours post pancreatitis onset, preliminary results) was “reduces the pancreatitis-induced plasma hyperenzymemia” and the “severity of pancreatitis (summary)” value ([4]; mouse pancreatitis studies) was “has the ability to reduce the severity of pancreatitis”. For the same molecule, the “pancreatic myeloperoxidase” value ([5]; 20 nmol/kg alone) was “did induce a low level of pancreatic MPO”, the “pancreatic tissue architecture (histological sections)” value ([5]; 20 nmol/kg alone) was “near normal pancreatic architecture” and the plasma amylase activity ([5]; 20 nmol/kg alone, vs baseline) was “did not increase plasma amylase activity above baseline activity”. The plasma lipase activity ([5]; 20 nmol/kg alone, vs baseline) was “did not increase plasma lipase activity above baseline activity” and the “pancreatic myeloperoxidase” value ([5]; 40 nmol/kg alone) was “did induce a low level of pancreatic MPO”.
